Source: patent publication US20250177383A1, “DI-CYCLOPROPYL BASED IL-17A MODULATORS AND USES THEREOF” (DICE ALPHA, INC., priority 2022, published 2025)

Tests used:
IL-17A/A = molecular target: T1, IL-17A/A (Homo sapiens, UniProt Q16552); assay: IL-17A/A HEK-Blue Cell Assay; type: cell-based; details: HEK-Blue IL-17 reporter cells, IL-17A/A stimulation, 20 hours, SEAP readout; read-out: IL17 AA HEK-5 pIC50 (converted)
T1 sequence (Q16552 24-155): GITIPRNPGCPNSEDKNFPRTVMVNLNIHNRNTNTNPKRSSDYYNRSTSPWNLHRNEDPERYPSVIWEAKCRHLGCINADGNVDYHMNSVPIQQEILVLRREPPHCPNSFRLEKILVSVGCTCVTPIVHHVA
Summary of the method: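 Cells co-expressing IL-17RA, IL-17RC and Act1 received titrated compound, top final 10 uM in 0.1% DMSO, immediately before IL-17A/A stimulation.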

[1] = Microsomal stability, human liver microsomes; type: in vitro ADME; details: human liver microsomes 0.5 mg protein/mL, 1 μM test compound, NADPH, 37° C., 60 min; read-out: HLM Clint
Experimental: (§1) Test compound and control working solution preparation. 5 μL of a compound and control stock solution (10 mM in dimethyl sulfoxide (DMSO)) were diluted with 495 μL of acetonitrile (ACN).
(§2) NADPH cofactor preparation. The appropriate amount of NADPH powder was weighed and diluted into a 10 mM MgCl2 solution (working solution concentration: 10 mM; final concentration in reaction system: 1 mM). Materials: NADPH powder: β-Nicotinamide adenine dinucleotide phosphate reduced form, tetrasodium salt; NADPHA4Na (Vendor: Chem-Impex International, Cat. No. 00616).
(§3) Liver Microsome Preparation. The appropriate concentrations of microsome working solutions were prepared in 100 mM potassium phosphate buffer. Materials: Human Liver Microsomes (HLM) Cat No. 452117 and Lot No. 38295 (Corning); SD Rat Liver Microsomes (RLM) Cat No. R1000 and Lot No. 1910100 (Xenotech).
(§4) Stop solution preparation. Cold (4° C.) acetonitrile (ACN) containing 200 ng/mL tolbutamide and 200 ng/mL labetalol as internal standards (IS) were used as the stop solution.
(§5) Assay Procedure. Empty incubation plates (T60 and NCF60) were warmed for 10 mins prior to use. Liver microsomes were diluted to 0.56 mg/mL in 100 mM phosphate buffer. 445 uL microsome working solutions (0.56 mg/mL) were transferred into pre-warmed ‘Incubation’ plates T60 and NCF60, Then ‘Incubation’ plates T60 and NCF60 were pre-incubated for 10 min at 37° C. with constant shaking. 54 μL liver microsomes were transferred to the blank plate, then 6 μL NAPDH cofactor were added to the blank plate, followed by the addition 180 μL quenching solution to the blank plate. 5 μL compound working solution (100 μM) were added into ‘incubation’ plates (T60 and NCF60) containing microsomes and mixed thoroughly 3 times. To the NCF60 plate 50 μL of buffer were added and mixed 3 times thoroughly. Start timing; plate was incubated at 37° C. for 60 min while shaking. In ‘Quenching’ plate TO, were added 180 μL quenching solution and 6 μL NAPDH cofactor. Plate is chilled to prevent evaporation. The T60 plate, was mixed 3 times thoroughly, and immediately 54 μL of the mixture was removed for the 0-min time point to ‘Quenching’ plate. Then 44 μL NAPDH cofactor was added to the incubation plate (T60). Start timing; plate was incubated at 37° C. for 60 min while shaking. Final concentrations of each component in the incubation media: Microsome (0.5 mg protein/mL); Test compound (1 μM); control compound ([…]); ACN (0.99%); and DMSO (0.01%). At 5, 15, 30, 45, and 60 min, 180 μL quenching solution was added to ‘Quenching’ plates, mixed once, and serially transferred 60 μL of sample from T60 plate per time point to ‘Quenching’ plates. For the NCF60 plate, mix once and 60 μL of sample was transferred from the NCF60 incubation to ‘Quenching’ plate containing quenching solution at the 60-min time point (Start time 1:00:00 and End Time 0:00:00).
(§6) All sampling plates were shaken for 10 min, then centrifuged at 4000 rpm for 20 minutes at 4° C. 80 μL of supernatant were transferred into 240 μL HPLC water, and mixed by plate shaker for 10 min. Each bioanalysis plate was sealed and shaken for 10 minutes prior to LC-MS/MS analysis.

[2] = Microsomal stability, rat liver microsomes; type: in vitro ADME; details: SD rat liver microsomes 0.5 mg protein/mL, 1 μM test compound, NADPH, 37° C., 60 min; read-out: RLM Clint
Experimental: as §1, §2, §3, §4, §5, §6

Rat pharmacokinetics, PO = type: in vivo; details: male rat, PO 5 mg/kg oral gavage, plasma, Linear/log trapezoidal; read-out: Rat PO AUC0-t
Experimental: Formulations for PO. An appropriate amount of the test article is weighed and mixed with the appropriate volume of vehicle to get a clear solution or a uniform suspension, vortexing or sonication in water bath may used. Animals are dosed within four hours after the formulation is prepared.
Formulation samples are removed from each of the formulation solutions or suspensions, transferred into 1.5 mL of polypropylene microcentrifuge tubes and run dose validated by LC/UV or LC-MS/MS.
Dose administration. For PO dosing, the dose formulation is administered via oral gavage.
Blood Collection. Each blood collection (about 0.2 mL per time point) is performed from carotid artery cannula (CAC) of each animal into a pre-chilled commercial EDTA-K2 tubes as anti-coagulant, then placed on wet ice until centrifugation. Blood samples are processed for plasma by centrifugation at approximately 4° C., 3,200 g for 10 min. Plasma is collected respectively and a certain amount of plasma from rat is transferred into pre-labeled 96 well plate or polypropylene tubes, quick frozen over dry ice and kept at −60° C. or lower until LC-MS/MS analysis. After terminal collection, all plasmas are stored at approximately −80° C. freezer until final analysis.
Plasma concentration versus time data are plotted in graph and analyzed by non-compartmental approaches using the Phoenix WinNonlin 6.3 software program. Trapezoids: Before TMax (Linear); After Tmax (Log). Partial Area Interpolations: Before TMax (Linear); After Tmax (Log).

Row | Structure (SMILES) | IC50 (IL-17A/A) | microsomal CLint at 1 μM [1] | microsomal CLint at 1 μM [2] | AUC(0-t) (Rat pharmacokinetics, PO)
1 | CCC(=O)N[C@@H](C(=O)N1CCN(C)[C@H](C)C1)[C@@H](C)c1ccc(NC(=O)[C@@H](NC(=O)c2ccnn2CC(F)F)C(C2CC2)C2CC2)c(F)c1 [Compound 232] | < 10 nM | < 50 µL/min/mg | < 9.6 µL/min/mg | < 500 ng·h/mL
2 | CCC(=O)N[C@@H](C(=O)N1CCN(C)CC1)[C@@H](C)c1ccc(NC(=O)[C@@H](NC(=O)c2ccnn2C(C)C)C(C2CC2)C2CC2)c(F)c1 [Compound 257] | < 10 nM | 50 to 150 µL/min/mg | < 9.6 µL/min/mg | 500 to 1000 ng·h/mL
3 | CCC(=O)N[C@@H](C(=O)N1CCN(C)[C@H](C)C1)[C@@H](C)c1ccc(NC(=O)[C@@H](NC(=O)c2ccnn2CC(F)F)[C@H]2CC[C@H](C)CC2)c(F)c1 [E, reference compound] | – | > 150 µL/min/mg | 9.6 to 20 µL/min/mg | 500 to 1000 ng·h/mL
4 | CCC(=O)N[C@@H](C(=O)N1CCN(C)[C@H](C)C1)[C@@H](C)c1ccc(NC(=O)[C@@H](NC(=O)c2ccnn2CCF)[C@H]2CC[C@H](C)CC2)c(F)c1 [F, reference compound] | – | 50 to 150 µL/min/mg | 9.6 to 20 µL/min/mg | 500 to 1000 ng·h/mL
5 | CCC(=O)N[C@@H](C(=O)N1CCN(C)[C@H](C)C1)[C@@H](C)c1ccc(NC(=O)[C@@H](NC(=O)c2ccnn2CC)[C@H]2CC[C@H](C)CC2)c(F)c1 [G, reference compound] | – | > 150 µL/min/mg | > 20 µL/min/mg | 500 to 1000 ng·h/mL
6 | CCC(=O)N[C@@H](C(=O)N1CCN(C)[C@H](C)C1)[C@@H](C)c1ccc(NC(=O)[C@@H](NC(=O)C2(F)CC2)[C@H]2CC[C@H](C)CC2)c(F)c1 [H, reference compound] | – | 50 to 150 µL/min/mg | 9.6 to 20 µL/min/mg | < 500 ng·h/mL
7 | CCC(=O)N[C@@H](C(=O)N1CCN(C)[C@@H](C)C1)[C@@H](C)c1ccc(NC(=O)[C@@H](NC(=O)c2ccnn2CC)[C@H]2CC[C@H](C)CC2)c(F)c1 [I, reference compound] | – | > 150 µL/min/mg | 9.6 to 20 µL/min/mg | < 500 ng·h/mL
8 | CCn1nccc1C(=O)N[C@H](C(=O)Nc1ccc([C@H](C)[C@@H](NC(=O)N(C)C2CC2)C(=O)N2CCN(C)CC2)cc1F)[C@H]1CC[C@H](C)CC1 [J, reference compound] | – | > 150 µL/min/mg | > 20 µL/min/mg | < 500 ng·h/mL
9 | CCn1nccc1C(=O)N[C@H](C(=O)Nc1ccc([C@H](C)[C@@H](NC(=O)COC)C(=O)N2CCN(C)CC2)cc1F)[C@H]1CC[C@H](C)CC1 [K, reference compound] | – | > 150 µL/min/mg | < 9.6 µL/min/mg | 500 to 1000 ng·h/mL
10 | CCC(=O)N[C@@H](C(=O)N1CCN(C)CC1)[C@@H](C)c1ccc(NC(=O)[C@@H](NC(=O)c2ccnn2C(C)C)[C@H]2CC[C@H](C)CC2)c(F)c1 [L, reference compound] | – | > 150 µL/min/mg | 9.6 to 20 µL/min/mg | 500 to 1000 ng·h/mL
